# Assay results taken from BigSolDB 2.1.
smiles,measurement,setting,value
c1ccc2[nH]c(-c3cscn3)nc2c1,solubility (mole fraction),"in 2-butanone, 283.15 K",0.0012
same,solubility (mole fraction),"in 2-butanone, 288.15 K",0.00137
same,solubility (mole fraction),"in 2-butanone, 293.15 K",0.00151
same,solubility (mole fraction),"in 2-butanone, 298.15 K",0.00161
same,solubility (mole fraction),"in 2-butanone, 303.15 K",0.00186
same,solubility (mole fraction),"in 2-butanone, 308.15 K",0.00209
same,solubility (mole fraction),"in 2-butanone, 313.15 K",0.00223
same,solubility (mole fraction),"in 2-butanone, 318.15 K",0.00241
same,solubility (mole fraction),"in 2-butanone, 323.15 K",0.0025
same,solubility (mole fraction),"in acetone, 283.15 K",0.000605
same,solubility (mole fraction),"in acetone, 288.15 K",0.000711
same,solubility (mole fraction),"in acetone, 293.15 K",0.000796
same,solubility (mole fraction),"in acetone, 298.15 K",0.000936
same,solubility (mole fraction),"in acetone, 303.15 K",0.00105
same,solubility (mole fraction),"in acetone, 308.15 K",0.00119
same,solubility (mole fraction),"in acetone, 313.15 K",0.00139
same,solubility (mole fraction),"in acetone, 318.15 K",0.00153
same,solubility (mole fraction),"in acetone, 323.15 K",0.00173
same,solubility (mole fraction),"in acetonitrile, 283.15 K",0.000112
same,solubility (mole fraction),"in acetonitrile, 288.15 K",0.00012
same,solubility (mole fraction),"in acetonitrile, 293.15 K",0.000145
same,solubility (mole fraction),"in acetonitrile, 298.15 K",0.000149
same,solubility (mole fraction),"in acetonitrile, 303.15 K",0.000209
same,solubility (mole fraction),"in acetonitrile, 308.15 K",0.000253
same,solubility (mole fraction),"in acetonitrile, 313.15 K",0.000309
same,solubility (mole fraction),"in acetonitrile, 318.15 K",0.000339
same,solubility (mole fraction),"in acetonitrile, 323.15 K",0.000403
same,solubility (mole fraction),"in ethanol, 283.15 K",0.00128
same,solubility (mole fraction),"in ethanol, 288.15 K",0.0014
same,solubility (mole fraction),"in ethanol, 293.15 K",0.00153
same,solubility (mole fraction),"in ethanol, 298.15 K",0.00163
same,solubility (mole fraction),"in ethanol, 303.15 K",0.00192
same,solubility (mole fraction),"in ethanol, 308.15 K",0.00213
same,solubility (mole fraction),"in ethanol, 313.15 K",0.00234
same,solubility (mole fraction),"in ethanol, 318.15 K",0.00274
same,solubility (mole fraction),"in ethanol, 323.15 K",0.00295
same,solubility (mole fraction),"in ethyl acetate, 283.15 K",0.000435
same,solubility (mole fraction),"in ethyl acetate, 288.15 K",0.000523
same,solubility (mole fraction),"in ethyl acetate, 293.15 K",0.000638
same,solubility (mole fraction),"in ethyl acetate, 298.15 K",0.000704
same,solubility (mole fraction),"in ethyl acetate, 303.15 K",0.000825
same,solubility (mole fraction),"in ethyl acetate, 308.15 K",0.000956
same,solubility (mole fraction),"in ethyl acetate, 313.15 K",0.00109
same,solubility (mole fraction),"in ethyl acetate, 318.15 K",0.00116
same,solubility (mole fraction),"in ethyl acetate, 323.15 K",0.00127
same,solubility (mole fraction),"in isobutanol, 283.15 K",0.000905
same,solubility (mole fraction),"in isobutanol, 288.15 K",0.00104
same,solubility (mole fraction),"in isobutanol, 293.15 K",0.00123
same,solubility (mole fraction),"in isobutanol, 298.15 K",0.00144
same,solubility (mole fraction),"in isobutanol, 303.15 K",0.00176
same,solubility (mole fraction),"in isobutanol, 308.15 K",0.00202
same,solubility (mole fraction),"in isobutanol, 313.15 K",0.0023
same,solubility (mole fraction),"in isobutanol, 318.15 K",0.00258
same,solubility (mole fraction),"in isobutanol, 323.15 K",0.00294
same,solubility (mole fraction),"in isopropanol, 283.15 K",0.000699
same,solubility (mole fraction),"in isopropanol, 288.15 K",0.000762
same,solubility (mole fraction),"in isopropanol, 293.15 K",0.00089
same,solubility (mole fraction),"in isopropanol, 298.15 K",0.000954
same,solubility (mole fraction),"in isopropanol, 303.15 K",0.00118
same,solubility (mole fraction),"in isopropanol, 308.15 K",0.00136
same,solubility (mole fraction),"in isopropanol, 313.15 K",0.0016
same,solubility (mole fraction),"in isopropanol, 318.15 K",0.00182
same,solubility (mole fraction),"in isopropanol, 323.15 K",0.00198
same,solubility (mole fraction),"in methanol, 283.15 K",0.00133
same,solubility (mole fraction),"in methanol, 288.15 K",0.00142
same,solubility (mole fraction),"in methanol, 293.15 K",0.00158
same,solubility (mole fraction),"in methanol, 298.15 K",0.00167
same,solubility (mole fraction),"in methanol, 303.15 K",0.00211
same,solubility (mole fraction),"in methanol, 308.15 K",0.00219
same,solubility (mole fraction),"in methanol, 313.15 K",0.00244
same,solubility (mole fraction),"in methanol, 318.15 K",0.00279
same,solubility (mole fraction),"in methanol, 323.15 K",0.00301
same,solubility (mole fraction),"in methyl acetate, 283.15 K",0.000378
same,solubility (mole fraction),"in methyl acetate, 288.15 K",0.000515
same,solubility (mole fraction),"in methyl acetate, 293.15 K",0.000608
same,solubility (mole fraction),"in methyl acetate, 298.15 K",0.000636
same,solubility (mole fraction),"in methyl acetate, 303.15 K",0.000758
same,solubility (mole fraction),"in methyl acetate, 308.15 K",0.000822
same,solubility (mole fraction),"in methyl acetate, 313.15 K",0.000899
same,solubility (mole fraction),"in methyl acetate, 318.15 K",0.000953
same,solubility (mole fraction),"in methyl acetate, 323.15 K",0.00117
same,solubility (mole fraction),"in n-butanol, 283.15 K",0.0016
same,solubility (mole fraction),"in n-butanol, 288.15 K",0.0018
same,solubility (mole fraction),"in n-butanol, 293.15 K",0.00193
same,solubility (mole fraction),"in n-butanol, 298.15 K",0.0022
same,solubility (mole fraction),"in n-butanol, 303.15 K",0.00266
same,solubility (mole fraction),"in n-butanol, 308.15 K",0.0029
same,solubility (mole fraction),"in n-butanol, 313.15 K",0.00337
same,solubility (mole fraction),"in n-butanol, 318.15 K",0.00371
same,solubility (mole fraction),"in n-butanol, 323.15 K",0.00416
same,solubility (mole fraction),"in n-butyl acetate, 283.15 K",0.000445
same,solubility (mole fraction),"in n-butyl acetate, 288.15 K",0.000544
same,solubility (mole fraction),"in n-butyl acetate, 293.15 K",0.000646
same,solubility (mole fraction),"in n-butyl acetate, 298.15 K",0.000724
same,solubility (mole fraction),"in n-butyl acetate, 303.15 K",0.000881
same,solubility (mole fraction),"in n-butyl acetate, 308.15 K",0.00098
same,solubility (mole fraction),"in n-butyl acetate, 313.15 K",0.00114
same,solubility (mole fraction),"in n-butyl acetate, 318.15 K",0.00122
same,solubility (mole fraction),"in n-butyl acetate, 323.15 K",0.00136
same,solubility (mole fraction),"in n-propanol, 283.15 K",0.00137
same,solubility (mole fraction),"in n-propanol, 288.15 K",0.00148
same,solubility (mole fraction),"in n-propanol, 293.15 K",0.00173
same,solubility (mole fraction),"in n-propanol, 298.15 K",0.00181
same,solubility (mole fraction),"in n-propanol, 303.15 K",0.00217
same,solubility (mole fraction),"in n-propanol, 308.15 K",0.00246
same,solubility (mole fraction),"in n-propanol, 313.15 K",0.00274
same,solubility (mole fraction),"in n-propanol, 318.15 K",0.00303
same,solubility (mole fraction),"in n-propanol, 323.15 K",0.00347
